This is an account of results in ChEMBL document CHEMBL5465560, “Selectivity Literature for EUbOPEN Chemogenomic Library” (2024).

Assay [1] concerns the target Tyrosine-protein kinase Fgr (Homo sapiens) (UniProt P09769). Briefly: Selectivity interaction (ActivX KiNativ screen (ex vivo kinase selectivity in human PBMCs)) EUB0001619a FGR. Type of assay: cell-based. To be noted: PBMC, at 1 µM.
Assay [2] has as its target Cyclin-dependent kinase 17 (Homo sapiens) (UniProt Q00537). The assay is described as follows: Selectivity interaction (KinomeScan (DiscoverX)) EUB0000607a CDK17. To be noted: at 10 µM.
Assay [3] has as its target Ephrin type-A receptor 2 (Homo sapiens) (UniProt P29317). Briefly: Selectivity interaction (ActivX KiNativ screen (kinase selectivity in THP-1 cell lysates)) EUB0000639a EPHA2. To be noted: lysate. It counts as subcellular.
In assay [4] the target is T1, Serine/threonine-protein kinase DCLK2 (Homo sapiens) (UniProt Q8N568).
T1 sequence (whole entry): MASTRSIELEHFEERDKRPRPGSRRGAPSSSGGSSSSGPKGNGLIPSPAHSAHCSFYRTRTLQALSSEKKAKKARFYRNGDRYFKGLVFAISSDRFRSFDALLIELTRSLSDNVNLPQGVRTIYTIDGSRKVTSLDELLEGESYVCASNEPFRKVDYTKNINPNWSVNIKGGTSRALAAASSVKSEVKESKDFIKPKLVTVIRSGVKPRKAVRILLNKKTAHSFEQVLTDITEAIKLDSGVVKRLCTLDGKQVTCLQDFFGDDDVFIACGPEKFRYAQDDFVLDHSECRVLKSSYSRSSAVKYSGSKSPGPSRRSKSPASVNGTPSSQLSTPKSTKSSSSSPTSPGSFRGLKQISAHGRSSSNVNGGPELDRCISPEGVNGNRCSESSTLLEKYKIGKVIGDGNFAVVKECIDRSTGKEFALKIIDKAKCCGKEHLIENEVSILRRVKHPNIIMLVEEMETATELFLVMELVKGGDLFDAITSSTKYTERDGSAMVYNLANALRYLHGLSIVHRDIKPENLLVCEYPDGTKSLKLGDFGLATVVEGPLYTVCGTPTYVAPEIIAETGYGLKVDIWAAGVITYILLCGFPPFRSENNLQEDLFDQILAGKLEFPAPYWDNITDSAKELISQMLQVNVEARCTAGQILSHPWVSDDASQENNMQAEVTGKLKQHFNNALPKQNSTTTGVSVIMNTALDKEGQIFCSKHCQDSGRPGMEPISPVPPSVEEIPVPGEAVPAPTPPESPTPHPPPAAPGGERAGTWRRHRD
Briefly: Selectivity interaction (KinomeScan (DiscoverX)) EUB0000045b DCLK2.

In assay [5] the target is T2, Cyclin-dependent kinase 11A (Homo sapiens) (UniProt Q9UQ88).
T2 sequence (whole entry): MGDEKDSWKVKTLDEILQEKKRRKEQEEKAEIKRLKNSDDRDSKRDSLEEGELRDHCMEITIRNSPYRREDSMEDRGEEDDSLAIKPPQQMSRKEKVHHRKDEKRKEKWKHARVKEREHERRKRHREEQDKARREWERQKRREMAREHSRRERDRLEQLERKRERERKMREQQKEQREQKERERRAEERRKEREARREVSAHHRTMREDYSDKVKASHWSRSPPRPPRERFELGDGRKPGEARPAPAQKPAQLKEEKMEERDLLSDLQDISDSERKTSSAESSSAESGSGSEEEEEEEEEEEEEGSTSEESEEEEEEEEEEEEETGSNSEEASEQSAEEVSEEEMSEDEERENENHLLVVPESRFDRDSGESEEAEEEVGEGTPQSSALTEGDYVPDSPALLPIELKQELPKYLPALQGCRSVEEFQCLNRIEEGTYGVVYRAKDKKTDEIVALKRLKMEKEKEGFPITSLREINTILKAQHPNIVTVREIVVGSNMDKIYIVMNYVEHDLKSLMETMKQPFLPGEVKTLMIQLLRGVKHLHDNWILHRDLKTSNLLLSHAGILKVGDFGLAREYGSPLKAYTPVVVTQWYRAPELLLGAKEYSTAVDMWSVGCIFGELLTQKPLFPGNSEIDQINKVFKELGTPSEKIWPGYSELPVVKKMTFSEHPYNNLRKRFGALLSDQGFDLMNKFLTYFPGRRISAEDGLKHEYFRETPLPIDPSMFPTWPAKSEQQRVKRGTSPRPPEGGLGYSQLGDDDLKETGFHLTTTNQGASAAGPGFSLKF
Briefly: Selectivity interaction (Ambit KINOMEscan and KiNATiv profiling in Jurkat cells) EUB0000090b CDK11A. Type of assay: cell-based. To be noted: at 1 µM.

For assay [6], the target named is Kappa-type opioid receptor (Homo sapiens, UniProt P41145). The assay is described as follows: Selectivity interaction (Panel of kinases, GPCRs, ion channels and transporters (enzymatic assay)) EUB0000223bCl OPRK1.
Sequence of Kappa-type opioid receptor (P41145 whole entry): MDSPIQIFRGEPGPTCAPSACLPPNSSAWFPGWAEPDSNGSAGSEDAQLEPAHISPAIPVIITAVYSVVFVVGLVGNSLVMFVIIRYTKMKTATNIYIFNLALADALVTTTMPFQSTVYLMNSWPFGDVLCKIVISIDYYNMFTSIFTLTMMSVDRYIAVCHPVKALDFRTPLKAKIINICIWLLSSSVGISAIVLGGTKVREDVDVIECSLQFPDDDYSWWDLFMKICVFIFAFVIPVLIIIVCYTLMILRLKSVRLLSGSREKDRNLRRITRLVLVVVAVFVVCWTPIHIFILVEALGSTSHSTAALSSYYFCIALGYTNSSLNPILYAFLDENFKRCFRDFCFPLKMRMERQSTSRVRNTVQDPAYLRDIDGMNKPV
Assay [7] deals with Protein arginine N-methyltransferase 8 (Homo sapiens, UniProt Q9NR22). The assay is described as follows: Selectivity interaction (Methyltransferase screen (radiometric assays, panel of 8 PRMTs, 21 protein lysine methyltransferases, 3 DNA methyltransferases, and one RNA methyltransferase)) EUB0000272b PRMT8.
Sequence of Protein arginine N-methyltransferase 8 (Q9NR22 2-394 limits assumed): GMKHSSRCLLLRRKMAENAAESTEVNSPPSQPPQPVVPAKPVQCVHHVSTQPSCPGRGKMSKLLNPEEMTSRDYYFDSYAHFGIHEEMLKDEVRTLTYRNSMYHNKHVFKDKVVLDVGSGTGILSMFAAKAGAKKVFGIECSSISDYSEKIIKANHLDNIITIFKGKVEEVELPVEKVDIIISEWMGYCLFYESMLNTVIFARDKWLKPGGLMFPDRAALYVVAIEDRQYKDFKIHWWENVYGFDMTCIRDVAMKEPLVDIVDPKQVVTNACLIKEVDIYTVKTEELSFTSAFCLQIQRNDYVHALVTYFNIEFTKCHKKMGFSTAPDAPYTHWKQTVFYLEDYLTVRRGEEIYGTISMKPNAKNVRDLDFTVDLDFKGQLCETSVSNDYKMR
In assay [8] the target is T3, Dual specificity mitogen-activated protein kinase kinase 5 (Homo sapiens) (UniProt Q13163).
T3 sequence (whole entry): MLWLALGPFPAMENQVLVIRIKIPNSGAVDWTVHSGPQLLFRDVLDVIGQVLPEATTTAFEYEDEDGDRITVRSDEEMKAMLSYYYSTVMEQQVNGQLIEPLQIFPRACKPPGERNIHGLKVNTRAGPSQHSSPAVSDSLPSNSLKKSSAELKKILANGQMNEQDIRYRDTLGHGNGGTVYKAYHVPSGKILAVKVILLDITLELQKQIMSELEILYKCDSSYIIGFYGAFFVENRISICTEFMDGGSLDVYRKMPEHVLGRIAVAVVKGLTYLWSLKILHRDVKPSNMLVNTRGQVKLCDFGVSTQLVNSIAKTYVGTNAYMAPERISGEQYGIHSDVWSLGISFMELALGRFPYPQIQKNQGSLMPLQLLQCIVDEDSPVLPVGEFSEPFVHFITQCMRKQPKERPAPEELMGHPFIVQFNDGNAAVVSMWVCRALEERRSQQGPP
Briefly: Selectivity interaction (Kinase panel (KiNativ target engagement assay in Jurkat cells)) EUB0001635a MAP2K5. Type of assay: cell-based. As to conditions: Selectivity number of off-targets 0.0, Selectivity number of targets 233.0, Source Knowledge https://www.sciencedirect.com/science/article/pii/S2451945619300674?via%3Dihub, at 1 µM.

Sequence of Ephrin type-A receptor 2 (Homo sapiens) (P29317 whole entry): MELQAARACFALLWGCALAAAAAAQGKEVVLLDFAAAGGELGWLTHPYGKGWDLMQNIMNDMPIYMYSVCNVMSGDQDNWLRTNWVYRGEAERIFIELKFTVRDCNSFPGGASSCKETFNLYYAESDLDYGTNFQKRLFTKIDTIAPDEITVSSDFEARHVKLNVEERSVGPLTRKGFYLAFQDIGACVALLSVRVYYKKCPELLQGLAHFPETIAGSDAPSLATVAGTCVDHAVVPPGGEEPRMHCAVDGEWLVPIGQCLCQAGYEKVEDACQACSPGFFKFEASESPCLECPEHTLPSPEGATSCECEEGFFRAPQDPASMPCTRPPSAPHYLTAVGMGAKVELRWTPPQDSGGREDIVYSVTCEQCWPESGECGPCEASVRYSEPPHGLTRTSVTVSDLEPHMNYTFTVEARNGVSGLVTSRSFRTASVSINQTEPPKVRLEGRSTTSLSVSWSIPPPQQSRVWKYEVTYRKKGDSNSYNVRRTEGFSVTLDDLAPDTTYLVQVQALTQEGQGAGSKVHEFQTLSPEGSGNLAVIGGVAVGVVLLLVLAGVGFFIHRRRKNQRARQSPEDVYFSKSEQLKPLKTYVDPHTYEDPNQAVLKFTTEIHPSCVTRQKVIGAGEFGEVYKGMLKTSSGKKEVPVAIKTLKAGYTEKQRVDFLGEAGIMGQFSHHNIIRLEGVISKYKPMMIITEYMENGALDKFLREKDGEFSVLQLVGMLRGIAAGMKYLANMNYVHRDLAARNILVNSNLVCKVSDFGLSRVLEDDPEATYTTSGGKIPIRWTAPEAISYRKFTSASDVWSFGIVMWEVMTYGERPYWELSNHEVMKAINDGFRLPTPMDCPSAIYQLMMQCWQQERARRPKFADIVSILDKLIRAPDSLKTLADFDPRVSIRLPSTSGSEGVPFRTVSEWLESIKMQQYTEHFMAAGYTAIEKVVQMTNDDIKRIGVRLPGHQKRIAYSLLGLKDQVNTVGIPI
Sequence of Cyclin-dependent kinase 17 (Homo sapiens) (Q00537 whole entry, looked up): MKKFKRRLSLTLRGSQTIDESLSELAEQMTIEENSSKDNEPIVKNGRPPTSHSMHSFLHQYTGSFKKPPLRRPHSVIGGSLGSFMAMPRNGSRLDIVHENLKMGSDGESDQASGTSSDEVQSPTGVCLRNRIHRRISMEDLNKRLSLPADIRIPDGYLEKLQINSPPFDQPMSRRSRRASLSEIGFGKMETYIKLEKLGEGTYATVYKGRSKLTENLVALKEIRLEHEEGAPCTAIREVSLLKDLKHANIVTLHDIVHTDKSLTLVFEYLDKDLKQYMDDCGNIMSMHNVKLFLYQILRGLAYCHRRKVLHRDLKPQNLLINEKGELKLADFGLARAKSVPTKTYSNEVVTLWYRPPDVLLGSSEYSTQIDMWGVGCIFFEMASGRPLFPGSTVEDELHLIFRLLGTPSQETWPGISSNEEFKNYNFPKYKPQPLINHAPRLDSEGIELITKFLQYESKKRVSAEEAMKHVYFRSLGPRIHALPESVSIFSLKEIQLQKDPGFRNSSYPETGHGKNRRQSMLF
Sequence of Tyrosine-protein kinase Fgr (Homo sapiens) (P09769 2-529 limits assumed): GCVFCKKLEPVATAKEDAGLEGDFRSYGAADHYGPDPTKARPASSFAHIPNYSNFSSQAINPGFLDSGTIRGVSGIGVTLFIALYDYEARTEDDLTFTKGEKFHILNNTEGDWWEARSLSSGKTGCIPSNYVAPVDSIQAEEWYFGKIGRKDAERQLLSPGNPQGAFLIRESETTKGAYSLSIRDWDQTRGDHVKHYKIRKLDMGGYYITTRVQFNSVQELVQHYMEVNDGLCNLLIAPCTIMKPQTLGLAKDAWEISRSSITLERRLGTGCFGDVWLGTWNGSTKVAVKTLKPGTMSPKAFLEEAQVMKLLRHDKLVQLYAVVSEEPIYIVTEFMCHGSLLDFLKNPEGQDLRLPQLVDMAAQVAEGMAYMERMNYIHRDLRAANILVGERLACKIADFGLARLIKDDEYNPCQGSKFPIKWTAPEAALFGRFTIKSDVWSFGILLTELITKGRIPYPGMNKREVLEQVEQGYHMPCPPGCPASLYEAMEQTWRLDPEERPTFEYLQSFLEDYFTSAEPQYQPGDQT

Take `N#Cc1cccc(-c2c[nH]c3ncnc(N4CCOCC4)c23)c1`: in assay [1], the % of inhibition is -34%. With `CNC(=O)Nc1ccc(-c2nc(N3CC4CCC(C3)O4)c3cnn(C4CCC5(CC4)OCCO5)c3n2)cc1`, the % of control in assay [2] came to 100%. With `CC[C@@H]1[C@H](F)C(=O)N[C@@H]1COc1nccc2cc(C(N)=O)c(OC)cc12` [ZIMLOVISERTIB], the % of inhibition in assay [3] (at 0.01 µM) is -12.3%; in assay [3] (at 0.04 µM), -11.2%; in assay [3] (at 0.2 µM), 2.2%; in assay [3] (at 1 µM), -12.7%; in assay [3] (at 5 µM) it was 14.3%. As to `C=CC(=O)Nc1cc(-n2c(=O)ccc3cnc4ccc(-c5ccc(NS(C)(=O)=O)cc5)cc4c32)ccc1C`, the % of control in assay [4] (at 1 µM) and in assay [4] (at 10 µM) was 100% in each case.

Turning to `CN(C)C/C=C/C(=O)Nc1ccc(C(=O)N2CCCC(Nc3ncc(Cl)c(-c4c[nH]c5ccccc45)n3)C2)cc1` (centres undefined), the % of control in assay [5] is 100%. Regarding `COc1cc(C(=O)N2CC[C@@H](O)[C@@H](N)C2)cc2nc(-c3cc4ccccc4n3CC3CC3)n(C)c12`, the pXC50 in assay [6] came out at 4.1 M. In the case of `Cc1cc(C)cc([C@H]2c3cc(C)ccc3NC(=O)CN2C(=O)c2ccc(Br)s2)c1`, the % of activity in assay [7] (at 1 µM) amounted to 100%; in assay [7] (at 10 µM), 96.7%. On to `C=CC(=O)Nc1ccc(C(=O)Nc2[nH]nc3c2CN(C(=O)N[C@H](CN(C)C)c2ccccc2)C3(C)C)cc1`, for which the % of engagement in assay [8] was 5.3%.
